US20150374673A1, “Combination Therapy for the Treatment of Nosocomial Pneumonia” (priority 2013, published 2015)

How the values were obtained:
E. coli = experiment: MIC, CLSI broth microdilution in CAMHB with 0-10% pulmonary surfactant (avibactam fixed at 4 μg/mL in combination); format: cell-based; details: Escherichia coli
Protocol: (§1) The bacterial strains used in this testing were part of the microbiological culture collection housed at AstraZeneca R&D Boston (AstraZeneca Research Collection, designated ARC). The panel of bacterial isolates used for this testing was comprised of five CLSI QC reference strains and the remainder were either recent clinical isolates expressing β-lactamases or isolates from the primary bacterial screening panels.
(§2) MIC values were determined using the CLSI broth microdilution methodology with slight variation. Stock compound mother plates were prepared and used to spot 2 μL aliquots of serial 2-fold drug dilutions to columns 1-11 of 96-well daughter plates using a Perkin-Elmer MiniTrak™ MultiPosition dispenser. […] An inoculum volume of 100 μL (5×10E^5 CFU/mL) in CAMHB containing 0, 1, 2.5, 5, or 10% pulmonary surfactant was added using a multichannel Finnpipette® to each well of the 96-well plate.
(§3) The minimum inhibitory concentration (MIC) values against each organism/drug combination were determined using broth microdilution methodology according to CLSI guidelines. The recommended reference bacterial strains for each test group and reference compounds were incorporated into each test. For Gram-negatives, the reference bacterial strains were Escherichia coli ATCC 25922, E. coli ATCC 35218, Klebsiella pneumoniae ATCC 700603, and Pseudomonas aeruginosa ATCC 27853. Staphylococcus aureus ATCC 29213 was the reference bacterial strain for the Gram-positives.
(§4) MIC values for individual isolates were read visually. The MICs for each compound or combination in pulmonary surfactant was compared to the compound or combination tested in CAMHB alone.

K. pneumoniae = experiment: as above; format: cell-based; details: Klebsiella pneumoniae
Protocol: as §1, §2, §3, §4

[1] = Serum and epithelial lining fluid (ELF) pharmacokinetics of ceftazidime-avibactam human simulated regimen in infected and uninfected mice; details: for fT > MIC: human simulated CAZ-AVI 2000-500 mg q8h 2 h infusion
Protocol: Pathogen-free, female ICR mice weighing approximately 25 g were acquired from Harlan Sprague Dawley, Inc. (Indianapolis, Ind.) and utilized throughout these experiments. Animals were maintained and used in accordance to National Research Council recommendations, and provided food and water ad libitum. Mice were rendered neutropenic with 100 and 250 mg/kg intraperitoneal injections of cyclophosphamide (Cytoxan®; Bristol-Myers Squibb, Princeton, N.J.) given one and four days prior to inoculation, respectively. Three days prior to inoculation, mice were also given a single 5 mg/kg intraperitoneal injection of uranyl nitrate. This produces a predictable degree of renal impairment to slow drug clearance. Two hours prior to the initiation of antimicrobial therapy, mice were lightly anesthetized using isofluorane (2.5% v/v in 100% oxygen carrier) until the respiratory rate decreased upon visual inspection. Pneumonia was induced by the instillation of 0.05 mL of a 10^7 CFU inoculum of the test isolate suspended in 3% mucin in normal saline. While the mouse is anesthetized, the inoculum is delivered into the animal's oral cavity, blocking the nares and holding the mouse in a vertical position. Aspiration of bacteria into the lungs occurred as the animals began to spontaneously respire.
In these studies, we utilized the previously determined dosing regimen described above. Confirmatory serum pharmacokinetic studies were undertaken in infected mice. For these studies, infected neutropenic mice were dosed with the above calculated regimen and groups of six mice ? were euthanized at multiple time points throughout a 24 h period to confirm target exposures blood was collected via cardiac puncture and the serum samples were stored at −80° C. until analysis. Pharmacokinetic studies were undertaken to describe the epithelial lining fluid concentrations in infected mice. For these studies, infected neutropenic mice were dosed with the above calculated regimen and groups of six mice were euthanized at multiple time points throughout the third dosing period (i.e. 16-24 h). Once euthanized, serum and BAL samples were collected as described above. Serum and BAL samples were stored at −80° C. until analysis.

[2] = Protein binding, equilibrium dialysis chamber, LC-MS/MS; format: in vitro ADME
Protocol: Blood was separated from plasma using a cooled centrifuge. Samples were split and stored at −80° C.

[3] = female, ICR, mouse, epithelial lining fluid (ELF) vs serum, ELF point Penetration Ratio, infected mice, ELF vs serum, third dosing interval
[4] = female, ICR, mouse, epithelial lining fluid (ELF) vs serum, ELF point Penetration Ratio, uninfected mice, ELF vs serum, third dosing interval

CC(C)(O/N=C(\C(=O)N[C@@H]1C(=O)N2C(C(=O)[O-])=C(C[n+]3ccccc3)CS[C@H]12)c1csc(N)n1)C(=O)O [ceftazidime, (6R,7R)-7-[[(2Z)-2-(2-amino-1,3-thiazol-4-yl)-2-(1-hydroxy-2-methyl-1-oxopropan-2-yl)oxyiminoacetyl]amino]-8-oxo-3-(pyridin-1-ium-1-ylmethyl)-5-thia-1-azabicyclo[4.2.0]oct-2-ene-2-carboxylate pentahydrate]
MIC (E. coli; ATCC25922, E. coli ARC4 (CLSI QC strain, ATCC 25922), surfactant 0%): 0.25 µg/mL
MIC (E. coli; ATCC25922, E. coli ARC4 (CLSI QC strain, ATCC 25922), surfactant 1%): 0.25 µg/mL
MIC (E. coli; ATCC25922, E. coli ARC4 (CLSI QC strain, ATCC 25922), surfactant 2.5%): 0.25 µg/mL
MIC (E. coli; ATCC25922, E. coli ARC4 (CLSI QC strain, ATCC 25922), surfactant 5%): 0.25 µg/mL
MIC (E. coli; ATCC25922, E. coli ARC4 (CLSI QC strain, ATCC 25922), surfactant 10%): 0.25 µg/mL
MIC (E. coli; ATCC35218, E. coli ARC016 (ATCC 35218, TEM-1), surfactant 0%): 0.12 µg/mL
MIC (E. coli; ATCC35218, E. coli ARC016 (ATCC 35218, TEM-1), surfactant 1%): 0.12 µg/mL
MIC (E. coli; ATCC35218, E. coli ARC016 (ATCC 35218, TEM-1), surfactant 2.5%): 0.12 µg/mL
MIC (E. coli; ATCC35218, E. coli ARC016 (ATCC 35218, TEM-1), surfactant 5%): 0.12 µg/mL
MIC (E. coli; ATCC35218, E. coli ARC016 (ATCC 35218, TEM-1), surfactant 10%): 0.12 µg/mL
MIC (E. coli; E. coli ARC523 (W3110), surfactant 0%): 0.5 µg/mL
MIC (E. coli; E. coli ARC523 (W3110), surfactant 1%): 0.5 µg/mL
MIC (E. coli; E. coli ARC523 (W3110), surfactant 2.5%): 0.25 µg/mL
MIC (E. coli; E. coli ARC523 (W3110), surfactant 5%): 0.5 µg/mL
MIC (E. coli; E. coli ARC523 (W3110), surfactant 10%): 0.5 µg/mL
MIC (E. coli; E. coli ARC3666 (CTX-M-15, OXA-1/30, SHV-31, TEM-1), surfactant 0%): 32 µg/mL
MIC (E. coli; E. coli ARC3666 (CTX-M-15, OXA-1/30, SHV-31, TEM-1), surfactant 1%): 32 µg/mL
MIC (E. coli; E. coli ARC3666 (CTX-M-15, OXA-1/30, SHV-31, TEM-1), surfactant 2.5%): 32 µg/mL
MIC (E. coli; E. coli ARC3666 (CTX-M-15, OXA-1/30, SHV-31, TEM-1), surfactant 5%): 32 µg/mL
MIC (E. coli; E. coli ARC3666 (CTX-M-15, OXA-1/30, SHV-31, TEM-1), surfactant 10%): 32 µg/mL
MIC (E. coli; E. coli ARC3690 (CTX-M-15, SHV-12), surfactant 0%): 64 µg/mL
MIC (E. coli; E. coli ARC3690 (CTX-M-15, SHV-12), surfactant 1%): 64 µg/mL
MIC (E. coli; E. coli ARC3690 (CTX-M-15, SHV-12), surfactant 2.5%): 64 µg/mL
MIC (E. coli; E. coli ARC3690 (CTX-M-15, SHV-12), surfactant 5%): 64 µg/mL
MIC (E. coli; E. coli ARC3690 (CTX-M-15, SHV-12), surfactant 10%): 64 µg/mL
MIC (K. pneumoniae; ATCC700603, K. pneumoniae ARC561 (ATCC 700603; SHV-18, OXA-2, OKP-6), surfactant 0%): 32 µg/mL
MIC (K. pneumoniae; ATCC700603, K. pneumoniae ARC561 (ATCC 700603; SHV-18, OXA-2, OKP-6), surfactant 1%): 32 µg/mL
MIC (K. pneumoniae; ATCC700603, K. pneumoniae ARC561 (ATCC 700603; SHV-18, OXA-2, OKP-6), surfactant 2.5%): 32 µg/mL
MIC (K. pneumoniae; ATCC700603, K. pneumoniae ARC561 (ATCC 700603; SHV-18, OXA-2, OKP-6), surfactant 5%): 32 µg/mL
MIC (K. pneumoniae; ATCC700603, K. pneumoniae ARC561 (ATCC 700603; SHV-18, OXA-2, OKP-6), surfactant 10%): 32 µg/mL
MIC (K. pneumoniae; K. pneumoniae ARC1865 (Primary Screening Panel), surfactant 1%): 0.25 µg/mL
MIC (K. pneumoniae; K. pneumoniae ARC1865 (Primary Screening Panel), surfactant 2.5%): 0.5 µg/mL
MIC (K. pneumoniae; K. pneumoniae ARC1865 (Primary Screening Panel), surfactant 5%): 0.5 µg/mL
MIC (K. pneumoniae; K. pneumoniae ARC1865 (Primary Screening Panel), surfactant 10%): 0.5 µg/mL
MIC (K. pneumoniae; K. pneumoniae ARC1865 (Primary Screening Panel), surfactant concentration cell empty): 0.5 µg/mL
MIC (K. pneumoniae; K. pneumoniae ARC2528 (Clinical isolate), surfactant 0%): 1 µg/mL
MIC (K. pneumoniae; K. pneumoniae ARC2528 (Clinical isolate), surfactant 1%): 2 µg/mL
MIC (K. pneumoniae; K. pneumoniae ARC2528 (Clinical isolate), surfactant 2.5%): 1 µg/mL
MIC (K. pneumoniae; K. pneumoniae ARC2528 (Clinical isolate), surfactant 5%): 1 µg/mL
MIC (K. pneumoniae; K. pneumoniae ARC2528 (Clinical isolate), surfactant 10%): 1 µg/mL
MIC (K. pneumoniae; K. pneumoniae ARC2929 (KPC-3), surfactant 0%): > 64 µg/mL
MIC (K. pneumoniae; K. pneumoniae ARC2929 (KPC-3), surfactant 1%): > 64 µg/mL
MIC (K. pneumoniae; K. pneumoniae ARC2929 (KPC-3), surfactant 2.5%): > 64 µg/mL
MIC (K. pneumoniae; K. pneumoniae ARC2929 (KPC-3), surfactant 5%): > 64 µg/mL
MIC (K. pneumoniae; K. pneumoniae ARC2929 (KPC-3), surfactant 10%): > 64 µg/mL
MIC (K. pneumoniae; K. pneumoniae ARC2945 (KPC-2, SHV-11, TEM-1, OXA-9), surfactant 0%): 64 µg/mL
MIC (K. pneumoniae; K. pneumoniae ARC2945 (KPC-2, SHV-11, TEM-1, OXA-9), surfactant 1%): 64 µg/mL
MIC (K. pneumoniae; K. pneumoniae ARC2945 (KPC-2, SHV-11, TEM-1, OXA-9), surfactant 2.5%): 64 µg/mL
MIC (K. pneumoniae; K. pneumoniae ARC2945 (KPC-2, SHV-11, TEM-1, OXA-9), surfactant 5%): 64 µg/mL
MIC (K. pneumoniae; K. pneumoniae ARC2945 (KPC-2, SHV-11, TEM-1, OXA-9), surfactant 10%): 64 µg/mL
MIC (K. pneumoniae; K. pneumoniae ARC3713 (CTX-M-15, OXA-1/30, SHV-5, TEM-1), surfactant 0%): > 64 µg/mL
MIC (K. pneumoniae; K. pneumoniae ARC3713 (CTX-M-15, OXA-1/30, SHV-5, TEM-1), surfactant 1%): > 64 µg/mL
MIC (K. pneumoniae; K. pneumoniae ARC3713 (CTX-M-15, OXA-1/30, SHV-5, TEM-1), surfactant 2.5%): > 64 µg/mL
MIC (K. pneumoniae; K. pneumoniae ARC3713 (CTX-M-15, OXA-1/30, SHV-5, TEM-1), surfactant 5%): > 64 µg/mL
MIC (K. pneumoniae; K. pneumoniae ARC3713 (CTX-M-15, OXA-1/30, SHV-5, TEM-1), surfactant 10%): > 64 µg/mL
fT > MIC ([1]; MIC 4, ELF, infected mice): 100%
fT > MIC ([1]; MIC 4, ELF, uninfected mice): 100%
fT > MIC ([1]; MIC 4, Serum, infected mice): 100%
fT > MIC ([1]; MIC 4, Serum, uninfected mice): 100%
fT > MIC ([1]; MIC 32, ELF, infected mice): 0%
fT > MIC ([1]; MIC 32, ELF, uninfected mice): 34%
fT > MIC ([1]; MIC 32, Serum, infected mice): 50%
fT > MIC ([1]; MIC 32, Serum, uninfected mice): 62%
Kp at 16 h [1, 3]: 2.13
Kp at 18.5 h [1, 3]: 0.8
Kp at 22 h ([1]; female, ICR, mouse, epithelial lining fluid (ELF) vs serum, ELF point Penetration Ratio, infected mice, 22 h, ELF vs serum, third dosing interval): 0.3
Kp at 24 h [1, 3]: 0.95
Kp at 16 h [1, 4]: 1.02
Kp at 18.5 h [1, 4]: 0.8
Kp at 24 h [1, 4]: 0.64
fraction unbound [2]: 0.9
